From PubChem BioAssay AID248 (DTP/NCI, 2004)
Where “and” joins values, the source holds several entries; their conditions need not be identical. Equal values may be shown once. Inconclusive results and toxic doses are left out.

Tested on: L1210 leukemia ip in BDF1 mice, survival T/C
Experiment: NCI In Vivo Anticancer Drug Screen. Data for tumor model L1210 Leukemia (intraperitoneal) in B6D2F1 (BDF1) mice
Conditions: endpoint: mean survival time, higher = longer survival
Method in brief: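 Mice bearing the transplanted tumor received compound or vehicle. Survival of the treated group was divided by that of the vehicle-treated control group to give the ratio.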

[1] = dose: 100.0 mg/kg/injection, schedule: Q04DX003 (ip), vehicle: saline with Tween-80
[2] = dose: 200.0 mg/kg/injection, schedule: Q04DX003 (ip), vehicle: saline with Tween-80
[3] = dose: 400.0 mg/kg/injection, schedule: Q04DX003 (ip), vehicle: saline with Tween-80
[4] = dose: 25.0 mg/kg/injection, schedule: Q01DX009 (ip), vehicle: Klucel (hydroxypropylcellulose) (HPC)
[5] = dose: 50.0 mg/kg/injection, schedule: Q01DX009 (ip), vehicle: Klucel (hydroxypropylcellulose) (HPC)
[6] = dose: 100.0 mg/kg/injection, schedule: Q01DX009 (ip), vehicle: Klucel (hydroxypropylcellulose) (HPC)
[7] = dose: 200.0 mg/kg/injection, schedule: Q01DX009 (ip), vehicle: Klucel (hydroxypropylcellulose) (HPC)
[8] = dose: 25.0 mg/kg/injection, schedule: Q01DX009 (ip), vehicle: saline
[9] = dose: 100.0 mg/kg/injection, schedule: Q04DX003 (ip), vehicle: saline sonified
[10] = dose: 50.0 mg/kg/injection, schedule: Q01DX009 (ip), vehicle: saline with Tween-80
[11] = dose: 50.0 mg/kg/injection, schedule: Q01DX009 (ip), vehicle: saline
[12] = dose: 100.0 mg/kg/injection, schedule: Q01DX009 (ip), vehicle: saline
[13] = dose: 100.0 mg/kg/injection, schedule: Q04DX003 (ip), vehicle: saline
[14] = dose: 100.0 mg/kg/injection, schedule: Q01DX001 (ip), vehicle: saline
[15] = dose: 200.0 mg/kg/injection, schedule: Q01DX001 (ip), vehicle: saline
[16] = dose: 400.0 mg/kg/injection, schedule: Q01DX001 (ip), vehicle: saline

## O=C1CC(c2ccccn2)=NN1c1ccccc1
[1]
  T/C: 98 % of control
[2]
  T/C: 94 % of control
[3]
  T/C: 91 % of control

## Cc1cccc(NC(=O)CCl)c1
[4]
  T/C: 94 % of control
[5]
  T/C: 87 % of control
[6]
  T/C: 103 % of control and 92 % of control
dose: 100.0 mg/kg/injection, schedule: Q04DX003 (ip), vehicle: Klucel (hydroxypropylcellulose) (HPC)
  T/C: 103 % of control
dose: 200.0 mg/kg/injection, schedule: Q04DX003 (ip), vehicle: Klucel (hydroxypropylcellulose) (HPC)
  T/C: 96 % of control and 86 % of control
dose: 400.0 mg/kg/injection, schedule: Q04DX003 (ip), vehicle: Klucel (hydroxypropylcellulose) (HPC)
  T/C: 99 % of control

## CSc1ccc(NC(=O)Nc2ccc(Cl)cc2C(=O)c2ccccc2)cc1
[6]
  T/C: 91 % of control
[7]
  T/C: 88 % of control

## CC(C)(CO)N=Cc1ccccc1O.CC(C)(CO)N=Cc1ccccc1O.[Ni]
dose: 75.0 mg/kg/injection, schedule: Q01DX001 (ip), vehicle: other
  T/C: 110 % of control
dose: 150.0 mg/kg/injection, schedule: Q01DX001 (ip), vehicle: other
  T/C: 117 % of control

## CN(N=O)C(=O)C(=O)N(C)N=O
dose: 9.0 mg/kg/injection, schedule: Q01DX001 (ip), vehicle: other
  T/C: 109 % of control
dose: 13.0 mg/kg/injection, schedule: Q01DX001 (ip), vehicle: other
  T/C: 112 % of control
dose: 15.0 mg/kg/injection, schedule: Q01DX Z (ip), vehicle: saline
  T/C: 100 % of control
dose: 30.0 mg/kg/injection, schedule: Q01DX Z (ip), vehicle: saline
  T/C: 103 % of control
dose: 60.0 mg/kg/injection, schedule: Q01DX Z (ip), vehicle: saline
  T/C: 92 % of control
dose: 120.0 mg/kg/injection, schedule: Q01DX Z (ip), vehicle: saline
  T/C: 94 % of control

## Clc1cccc(N=C(Oc2cccc(Cl)c2)c2ccccc2)c1
dose: 25.6 mg/kg/injection, schedule: Q04DX002 (ip), vehicle: saline with Tween-80
  T/C: 176 % of control
dose: 64.0 mg/kg/injection, schedule: Q04DX002 (ip), vehicle: saline with Tween-80
  T/C: 101 % of control
dose: 160.0 mg/kg/injection, schedule: Q04DX002 (ip), vehicle: saline with Tween-80
  T/C: 97 % of control
dose: 400.0 mg/kg/injection, schedule: Q04DX002 (ip), vehicle: saline with Tween-80
  T/C: 93 % of control

## NC(CSS(=O)(=O)O)=NCC1CC2CCC1C2 (stereo not drawn)
dose: 6.25 mg/kg/injection, schedule: Q04DX002 (ip), vehicle: saline with Tween-80
  T/C: 100 % of control
dose: 12.5 mg/kg/injection, schedule: Q04DX002 (ip), vehicle: saline with Tween-80
  T/C: 110 % of control
dose: 25.0 mg/kg/injection, schedule: Q04DX002 (ip), vehicle: saline with Tween-80
  T/C: 106 % of control

## CC(C)c1cc[n+](/C(C(=S)Nc2cccc(Cl)c2)=C(/[O-])c2ccc([N+](=O)[O-])cc2)cc1
[6]
  T/C: 105 % of control
[7]
  T/C: 91 % of control
dose: 400.0 mg/kg/injection, schedule: Q01DX009 (ip), vehicle: Klucel (hydroxypropylcellulose) (HPC)
  T/C: 94 % of control

## c1ccc(NC(Nc2ccccn2)c2ccncc2)nc1
[1]
  T/C: 104 % of control
[2]
  T/C: 111 % of control

## Cc1cccc(Cl)c1N=Nc1sc(N)nc1C
dose: 75.0 mg/kg/injection, schedule: Q01DX001 (ip), vehicle: saline
  T/C: 105 % of control
dose: 150.0 mg/kg/injection, schedule: Q01DX001 (ip), vehicle: saline
  T/C: 105 % of control

## O=C(O)C(O)C(O)C(=O)O.O=C(O)C(O)C(O)C(=O)O.[O]=[V].[O]=[V] (stereo not drawn)
dose: 6.25 mg/kg/injection, schedule: Q01DX009 (ip), vehicle: saline
  T/C: 101 % of control and 110 % of control
dose: 6.25 mg/kg/injection, schedule: Q04DX003 (ip), vehicle: saline
  T/C: 92 % of control and 106 % of control
dose: 12.5 mg/kg/injection, schedule: Q01DX009 (ip), vehicle: saline
  T/C: 101 % of control and 96 % of control
dose: 12.5 mg/kg/injection, schedule: Q04DX003 (ip), vehicle: saline
  T/C: 92 % of control and 96 % of control
[8]
  T/C: 98 % of control and 94 % of control
dose: 25.0 mg/kg/injection, schedule: Q04DX003 (ip), vehicle: saline
  T/C: 96 % of control and 97 % of control and 109 % of control
dose: 50.0 mg/kg/injection, schedule: Q04DX003 (ip), vehicle: saline
  T/C: 104 % of control
[9]
  T/C: 91 % of control

## COc1ccc(/C=C\c2nc3ccccc3c(=O)[nH]2)cc1
[1]
  T/C: 95 % of control
[2]
  T/C: 88 % of control
[3]
  T/C: 95 % of control

## CCCCCCCCCN(CCCC)CCCC
dose: 25.0 mg/kg/injection, schedule: Q01DX001 (ip), vehicle: saline with Tween-80
  T/C: 95 % of control
dose: 50.0 mg/kg/injection, schedule: Q01DX001 (ip), vehicle: saline with Tween-80
  T/C: 88 % of control
dose: 100.0 mg/kg/injection, schedule: Q01DX001 (ip), vehicle: saline with Tween-80
  T/C: 102 % of control

## Clc1ccc(-c2cc(=[N+]3CCOCC3)ss2)cc1
dose: 25.0 mg/kg/injection, schedule: Q01DX009 (ip), vehicle: water
  T/C: 101 % of control
dose: 50.0 mg/kg/injection, schedule: Q01DX009 (ip), vehicle: water
  T/C: 93 % of control
dose: 100.0 mg/kg/injection, schedule: Q01DX009 (ip), vehicle: water
  T/C: 96 % of control
dose: 200.0 mg/kg/injection, schedule: Q01DX009 (ip), vehicle: water
  T/C: 88 % of control

## CC(=O)OC1CC2CC1C1C=CCC21 (stereo not drawn)
[10]
  T/C: 88 % of control
dose: 100.0 mg/kg/injection, schedule: Q01DX009 (ip), vehicle: saline with Tween-80
  T/C: 86 % of control
[9]
  T/C: 94 % of control
dose: 200.0 mg/kg/injection, schedule: Q04DX003 (ip), vehicle: saline sonified
  T/C: 89 % of control

## CC(C)C(C#N)c1ccccc1 (stereo not drawn)
dose: 12.5 mg/kg/injection, schedule: Q01DX009 (ip), vehicle: Klucel (hydroxypropylcellulose) (HPC)
  T/C: 97 % of control
[4]
  T/C: 100 % of control
dose: 25.0 mg/kg/injection, schedule: Q04DX003 (ip), vehicle: Klucel (hydroxypropylcellulose) (HPC)
  T/C: 96 % of control
[5]
  T/C: 97 % of control
dose: 50.0 mg/kg/injection, schedule: Q04DX003 (ip), vehicle: Klucel (hydroxypropylcellulose) (HPC)
  T/C: 98 % of control

## CN(C)Cc1cccc2ccccc12
[5]
  T/C: 95 % of control

## O=C(C=C(C(F)(F)F)C(F)(F)F)c1ccc(C(=O)C=C(C(F)(F)F)C(F)(F)F)cc1
dose: 12.5 mg/kg/injection, schedule: Q01DX009 (ip), vehicle: saline with Tween-80
  T/C: 89 % of control
dose: 25.0 mg/kg/injection, schedule: Q01DX009 (ip), vehicle: saline with Tween-80
  T/C: 100 % of control
[10]
  T/C: 94 % of control and 101 % of control

## CC(Oc1cc(Cl)c(Cl)cc1Cl)C(=O)ON(C)C (stereo not drawn)
[6]
  T/C: 100 % of control
[7]
  T/C: 100 % of control

## COC(=O)C1C2CC3c4[nH]c5cc(OC)ccc5c4CCN3CC2CC(O)C1OC (stereo not drawn)
dose: 50.0 mg/kg/injection, schedule: Q04DX002 (ip), vehicle: Klucel (hydroxypropylcellulose) (HPC)
  T/C: 96 % of control
dose: 100.0 mg/kg/injection, schedule: Q04DX002 (ip), vehicle: Klucel (hydroxypropylcellulose) (HPC)
  T/C: 90 % of control

## COC(C)(C)C(C)O (stereo not drawn)
[11]
  T/C: 100 % of control
[12]
  T/C: 96 % of control
dose: 200.0 mg/kg/injection, schedule: Q01DX009 (ip), vehicle: saline
  T/C: 100 % of control

## CSC1OC(C(NC(=O)N(C)N=O)C(C)O)C(O)C(O)C1O (stereo not drawn)
[13]
  T/C: 105 % of control
dose: 200.0 mg/kg/injection, schedule: Q04DX003 (ip), vehicle: saline
  T/C: 118 % of control

## Cc1ccc(S(=O)(=O)N(CCC(=N)N)C(C)C)cc1
[8]
  T/C: 91 % of control
[11]
  T/C: 96 % of control
[12]
  T/C: 96 % of control
[13]
  T/C: 104 % of control

## O=C(NCCCCCCNC(=O)NCc1ccc(Cl)c(Cl)c1)NCc1ccc(Cl)c(Cl)c1
dose: 100.0 mg/kg/injection, schedule: Q01DX009 (ip), vehicle: other
  T/C: 97 % of control
dose: 200.0 mg/kg/injection, schedule: Q01DX009 (ip), vehicle: other
  T/C: 86 % of control
dose: 400.0 mg/kg/injection, schedule: Q01DX009 (ip), vehicle: other
  T/C: 95 % of control

## CCOC(=O)c1cnc(SC)nc1OCC
dose: 12.0 mg/kg/injection, schedule: Q01DX001 (ip), vehicle: Klucel (hydroxypropylcellulose) (HPC)
  T/C: 93 % of control
dose: 25.0 mg/kg/injection, schedule: Q01DX001 (ip), vehicle: Klucel (hydroxypropylcellulose) (HPC)
  T/C: 104 % of control

## O=S(=O)(Nc1ccccn1)c1ccc(N=Nc2ccc(O)c3ncccc23)cc1
[14]
  T/C: 103 % of control
[15]
  T/C: 105 % of control
[16]
  T/C: 103 % of control

## CC(=O)NCC(N)=S
[14]
  T/C: 102 % of control
[15]
  T/C: 102 % of control
[16]
  T/C: 98 % of control
